Measured values published in PubChem BioAssay (NCI).
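Values below derive from 48-hour exposures of cells grown in 96-well plates, with endpoints linearly interpolated between the two concentrations bracketing the appropriate inhibition level. At the GI50, growth is halved. The concentration for full growth arrest is given as TGI.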

How the values were obtained:
Assay in all cases: growth of human tumour cells (NCI), 48 h
MCF7 breast = test system: MCF7 breast
OVCAR-3 ovarian = test system: OVCAR-3 ovarian
MALME-3M melanoma = test system: MALME-3M melanoma
SF-268 CNS = test system: SF-268 CNS
HCT-116 colon = test system: HCT-116 colon
CCRF-CEM leukemia = test system: CCRF-CEM leukemia
IGROV1 ovarian = test system: IGROV1 ovarian
MDA-MB-435 = test system: MDA-MB-435
HOP-92 NSCLC = test system: HOP-92 NSCLC
TK-10 renal = test system: TK-10 renal
A498 renal = test system: A498 renal
HOP-62 NSCLC = test system: HOP-62 NSCLC
M14 melanoma = test system: M14 melanoma
HT29 colon = test system: HT29 colon
MOLT-4 leukemia = test system: MOLT-4 leukemia
OVCAR-5 ovarian = test system: OVCAR-5 ovarian
T-47D breast = test system: T-47D breast
NCI-H460 lung = test system: NCI-H460 lung
KM12 colon = test system: KM12 colon
U251 CNS = test system: U251 CNS
DU-145 prostate = test system: DU-145 prostate
ACHN renal = test system: ACHN renal
RPMI-8226 leukemia = test system: RPMI-8226 leukemia
HL-60(TB) leukemia = test system: HL-60(TB) leukemia
LOX IMVI melanoma = test system: LOX IMVI melanoma
SK-MEL-28 melanoma = test system: SK-MEL-28 melanoma
HS 578T breast = test system: HS 578T breast
SK-MEL-2 melanoma = test system: SK-MEL-2 melanoma
SF-539 CNS = test system: SF-539 CNS
EKVX NSCLC = test system: EKVX NSCLC
UO-31 renal = test system: UO-31 renal
RXF 393 renal = test system: RXF 393 renal
NCI-H522 lung = test system: NCI-H522 lung
NCI/ADR-RES ovarian = test system: NCI/ADR-RES ovarian
SR leukemia = test system: SR leukemia
K-562 leukemia = test system: K-562 leukemia
786-0 renal = test system: 786-0 renal
SN12C renal = test system: SN12C renal
PC-3 prostate = test system: PC-3 prostate
HCT-15 colon = test system: HCT-15 colon
SNB-75 CNS = test system: SNB-75 CNS
OVCAR-4 ovarian = test system: OVCAR-4 ovarian
SW-620 colon = test system: SW-620 colon
CAKI-1 renal = test system: CAKI-1 renal
SNB-19 CNS = test system: SNB-19 CNS
UACC-62 melanoma = test system: UACC-62 melanoma
SF-295 CNS = test system: SF-295 CNS
SK-MEL-5 melanoma = test system: SK-MEL-5 melanoma
HCC-2998 colon = test system: HCC-2998 colon
NCI-H226 lung = test system: NCI-H226 lung
NCI-H23 lung = test system: NCI-H23 lung
COLO 205 colon = test system: COLO 205 colon
BT-549 breast = test system: BT-549 breast
SK-OV-3 ovarian = test system: SK-OV-3 ovarian
A549 NSCLC = test system: A549 NSCLC
UACC-257 melanoma = test system: UACC-257 melanoma
OVCAR-8 ovarian = test system: OVCAR-8 ovarian
MDA-MB-231 breast = test system: MDA-MB-231 breast

Q: What does the source list for COC(=O)c1cc(-c2ccccc2)[nH]c1N/N=C/c1c(Cl)cccc1Cl?
A: GI50 (MCF7 breast): 266 nM; TGI (MCF7 breast): 4850 nM; GI50 (OVCAR-3 ovarian): 170 nM; TGI (OVCAR-3 ovarian): 356 nM; GI50 (MALME-3M melanoma): 340 nM; TGI (MALME-3M melanoma): 6670 nM; GI50 (SF-268 CNS): 436 nM; TGI (SF-268 CNS): 8250 nM; GI50 (HCT-116 colon): 318 nM; TGI (HCT-116 colon): 1710 nM; GI50 (CCRF-CEM leukemia): 348 nM; TGI (CCRF-CEM leukemia): 93000 nM; GI50 (IGROV1 ovarian): 412 nM; GI50 (MDA-MB-435): 31.1 nM; TGI (MDA-MB-435): 119 nM; GI50 (HOP-92 NSCLC): 609 nM; TGI (HOP-92 NSCLC): 17500 nM; GI50 (TK-10 renal): 392 nM; TGI (TK-10 renal): 2400 nM; GI50 (A498 renal): 198 nM; TGI (A498 renal): 704 nM; GI50 (HOP-62 NSCLC): 471 nM; TGI (HOP-62 NSCLC): > 33600 nM; GI50 (M14 melanoma): 240 nM; TGI (M14 melanoma): 1370 nM; GI50 (HT29 colon): 350 nM; GI50 (MOLT-4 leukemia): 437 nM; TGI (MOLT-4 leukemia): > 100000 nM; GI50 (OVCAR-5 ovarian): 732 nM; TGI (OVCAR-5 ovarian): 16700 nM; GI50 (T-47D breast): 418 nM; TGI (T-47D breast): 7360 nM; GI50 (NCI-H460 lung): 319 nM; TGI (NCI-H460 lung): 1250 nM; GI50 (KM12 colon): 274 nM; TGI (KM12 colon): 1570 nM; GI50 (U251 CNS): 332 nM; TGI (U251 CNS): 3580 nM; GI50 (DU-145 prostate): 322 nM; TGI (DU-145 prostate): 1140 nM; GI50 (ACHN renal): 858 nM; TGI (ACHN renal): 26400 nM; GI50 (RPMI-8226 leukemia): 243 nM; TGI (RPMI-8226 leukemia): 753 nM; GI50 (HL-60(TB) leukemia): 289 nM; GI50 (LOX IMVI melanoma): 602 nM; TGI (LOX IMVI melanoma): 17700 nM; GI50 (SK-MEL-28 melanoma): 535 nM; TGI (SK-MEL-28 melanoma): 17400 nM; GI50 (HS 578T breast): 221 nM; TGI (HS 578T breast): 3500 nM; GI50 (SK-MEL-2 melanoma): 615 nM; TGI (SK-MEL-2 melanoma): 17200 nM; GI50 (SF-539 CNS): 218 nM; TGI (SF-539 CNS): 605 nM; GI50 (EKVX NSCLC): 454 nM; TGI (EKVX NSCLC): > 37300 nM; GI50 (UO-31 renal): 609 nM; TGI (UO-31 renal): > 56300 nM; GI50 (RXF 393 renal): 616 nM; TGI (RXF 393 renal): 52000 nM; GI50 (NCI-H522 lung): 260 nM; GI50 (NCI/ADR-RES ovarian): 220 nM; TGI (NCI/ADR-RES ovarian): 770 nM; GI50 (SR leukemia): 429 nM; TGI (SR leukemia): > 100000 nM; GI50 (K-562 leukemia): 729 nM; TGI (K-562 leukemia): > 100000 nM; GI50 (786-0 renal): 410 nM; TGI (786-0 renal): 8390 nM; GI50 (SN12C renal): 518 nM; TGI (SN12C renal): > 36600 nM; GI50 (PC-3 prostate): 410 nM; GI50 (HCT-15 colon): 308 nM; TGI (HCT-15 colon): > 36000 nM; GI50 (SNB-75 CNS): 215 nM; TGI (SNB-75 CNS): 2430 nM; GI50 (OVCAR-4 ovarian): 729 nM; TGI (OVCAR-4 ovarian): > 28600 nM; GI50 (SW-620 colon): 279 nM; TGI (SW-620 colon): > 38800 nM; GI50 (CAKI-1 renal): 354 nM; TGI (CAKI-1 renal): 4390 nM; GI50 (SNB-19 CNS): 435 nM; TGI (SNB-19 CNS): 15300 nM; GI50 (UACC-62 melanoma): 278 nM; TGI (UACC-62 melanoma): 9000 nM; GI50 (SF-295 CNS): 195 nM; TGI (SF-295 CNS): 920 nM; GI50 (SK-MEL-5 melanoma): 335 nM; TGI (SK-MEL-5 melanoma): 1890 nM; GI50 (HCC-2998 colon): 363 nM; TGI (HCC-2998 colon): 23400 nM; GI50 (NCI-H226 lung): 369 nM; GI50 (NCI-H23 lung): 438 nM; TGI (NCI-H23 lung): 15400 nM; GI50 (COLO 205 colon): 301 nM; TGI (COLO 205 colon): > 40100 nM; GI50 (BT-549 breast): 466 nM; TGI (BT-549 breast): 6690 nM; GI50 (SK-OV-3 ovarian): 390 nM; TGI (SK-OV-3 ovarian): 3260 nM; GI50 (A549 NSCLC): 501 nM; TGI (A549 NSCLC): > 44100 nM; GI50 (UACC-257 melanoma): 3580 nM; TGI (UACC-257 melanoma): 41300 nM; GI50 (OVCAR-8 ovarian): 473 nM; TGI (OVCAR-8 ovarian): > 100000 nM; GI50 (MDA-MB-231 breast): 474 nM; TGI (MDA-MB-231 breast): 6850 nM
